Patent US20070254907A1, “COMPOSITIONS AND METHODS FOR CONTROLLING INFESTATION” (HATCHTECH PTY LTD, priority 2003, published 2007)
“Also recorded” adds a separate entry of the source.

Key:
[1] = tested on: third stage H. contortus larvae; assay: Survival and L3 to L4 moulting of third stage larvae; type: in vivo, Haemonchus contortus
Description: Third stage H. contortus larvae were exposed to varying concentrations of 5,5′-dimethyl-2,2′-dipyridyl and the effects on moulting from L3 to L4 examined. The larvae were either exsheathed (their L2 sheath was removed chemically) or unexsheathed (their L2 sheaths were intact). The larvae were exposed to varying concentrations of 5,5′-dimethyl-2,2′-dipyridyl added to their culture media of DMEM and the effects on larval survival monitored over time. Following a 30 minute incubation at 37° C., greater than 90% of the exsheathed larvae exposed to 1 and 0.5 mM of the compound appeared dead. […] By day six post exposure greater than 90% of the larvae appeared to have died in the treatment groups while the control larvae appeared healthy.

lice eggs = assay: whole plant or invertebrate; type: in vivo; settings: Lice (L)
Plutella xylostella eggs [2] = assay: Reversal of inhibition of Plutella egg hatching by added FeSO4; type: in vivo
Description: (§1) Within 24 hours of collection the following experimental design was chosen. Batches of eggs were exposed to 10 mM 6,6′-dimethyl-2,2′-dipyridyl for 2 seconds while additional batches of eggs were exposed to the solvent only (Methanol) for 2 seconds. All batches of eggs were allowed to air dry for 20 minutes at room temperature. The eggs were then given a 2 second exposure to FeSO4 at either 10, 5 or 1 mM, air dried and put in the incubator at 24° C. and allowed to hatch over the next 6 days. In addition, a positive control of 10 mM 6,6′-dimethyl-2,2′-dipyridyl was set up in which eggs were exposed to this compound for 2 seconds, air dried and placed in the incubator.
as §1, with “10 mM 5,5′-dimethyl-2,2′-dipyridyl for 2” for “10 mM 6,6′-dimethyl-2,2′-dipyridyl for 2”, “FeSO4 at 10, 5” for “FeSO4 at either 10, 5”, “put in an incubator at” for “put in the incubator at”, “of 10 mM, 5,5′-dimethyl-2,2′-dipyridyl was set” for “of 10 mM 6,6′-dimethyl-2,2′-dipyridyl was set”

Plutella xylostella eggs [3] = assay: whole plant or invertebrate; type: in vivo; settings: for Ovicidal activity % / Activity class 0 = inactive 1 = low 2 = med 3 = high: Plutella (P); for % Inhibition: relative to controls
Description: The ovicidal efficacy of 2-acetyl-1-tetralone was also tested against Plutella eggs.

B. ovis eggs = assay: Egg hatching in Bovicola ovis; type: in vivo; settings: 10 mM; for Number hatched in different replicates: 10 eggs per replicate; for % Inhibition: in comparison to the controls; for Number unhatched: per replicate
Description: B. ovis eggs were collected from the wool of sheep that were infested with this parasite. The eggs were collected using forceps and with the aid of a dissecting microscope and placed in 24 well tissue culture plates in duplicate lots of 10 eggs per replicate. The eggs were then exposed to either methanol alone (control) or the test compounds for either 10 minutes or 1 minute before being removed from the wells and placed into individual glass vials containing a diet at the base of the tube. The tubes were placed in plastic containers containing a salt solution (to keep humidity constant at 68%) and the containers maintained at a temperature 32° C. The eggs were monitored for hatching over the following 12 days and % hatch inhibition determined in comparison to the controls.

[4] = tested on: Lice (L) and Plutella (P) eggs; settings: Lice (L) and Plutella (P)
[5] = tested on: Helicoverpa armigera eggs; assay: Egg hatching of Helicoverpa armigera; settings: 10 mM
Description: A range of concentrations were made up in water and the eggs placed in the solutions for approximately 2-10 seconds. The eggs which had been laid on cloth were then blotted dry and placed in an incubator at 26° C. for 3-4 days until hatch. Hatch rates were then assessed compared to a water only treated control (FIG. 5).
The compound was dissolved in 100% diethoxyglycol and diluted to a final concentration of 1% in water.
Several hundred Helicoverpa armigera eggs (Tatura×Toowoomba strains) were collected, that had been laid on fine mesh cloth over a 24 hour period.
Batches of Helicoverpa eggs were exposed to a specific inhibitor solution for between 2-10 seconds the excess solution drained by blotting with dry tissue paper. The egg masses were then placed in a humid box at 25 degrees until egg hatch. Control eggs were exposed to absolute methanol as described above. At day 6 post laying the eggs were assessed from the different treatments and the percentage of egg hatch determined relative to the control as shown in Table 12.
Batches of Helicoverpa eggs were then exposed to a specific inhibitor solution for between 2-10 seconds the excess solution drained by blotting with dry tissue paper. The egg masses were then placed in a humid box at 25° C. until egg hatch. Control eggs were exposed to absolute methanol as described above. At day 6 post laying the eggs were assessed from the different treatments and the percentage of egg hatch determined relative to the control as shown in Table 13.

[6] = 10 mM chelator followed by 2 second exposure to 1 mM FeSO4
[7] = 10 mM chelator followed by 2 second exposure to 5 mM FeSO4
[8] = 10 mM chelator followed by 2 second exposure to 10 mM FeSO4
[9] = 10 mM chelator followed by 2 second exposure to MEOH
[10] = 10 mM chelator, 2 s, (+ve) control without second exposure
[11] = Table 10, eggs laid on cloth, 1 mM
[12] = Table 10, eggs laid on cloth, 10 mM
[13] = Table 11, eggs laid on parafilm, 1 mM
[14] = Table 11, eggs laid on parafilm, 10 mM

SMILES: Cc1ccc(-c2ccc(C)cn2)nc1 [5,5′-dimethyl-2,2′-dipyridyl]
- appearance of unexsheathed larvae ([1]; 10 μM, up to 6 days post exposure): larvae appeared normal
- exsheathed larvae that appeared dead ([1]; 1 and 0.5 mM in DMEM, 30 minute incubation at 37° C.): greater than 90%
- unexsheathed larvae that appeared to have died ([1]; day six post exposure, treatment groups): greater than 90%
- effects on unexsheathed larvae compared to control larvae ([1]; up to 3 days post exposure): no adverse effects were observed
- Ovicidal activity % (lice eggs; 30 mM): 100.00%
- Activity class 0 = inactive 1 = low 2 = med 3 = high (lice eggs; listed as of 30 mM): 2 (a pLD50 value between 3 and 4 is considered moderately active (Class 2))
- Number hatched (Plutella xylostella eggs [2]; [6]): 39
- Number unhatched (Plutella xylostella eggs [2]; [6]): 0
- % Inhibition (Plutella xylostella eggs [2]; 10 mM chelator followed by 2 second exposure to 1 mM FeSO4, relative to FeSO4 controls): 0%
- Number hatched (Plutella xylostella eggs [2]; [7]): 25
- Number unhatched (Plutella xylostella eggs [2]; [7]): 0
- % Inhibition (Plutella xylostella eggs [2]; 10 mM chelator followed by 2 second exposure to 5 mM FeSO4, relative to FeSO4 controls): 0%
- Number hatched (Plutella xylostella eggs [2]; [8]): 23
- Number unhatched (Plutella xylostella eggs [2]; [8]): 2
- % Inhibition (Plutella xylostella eggs [2]; 10 mM chelator followed by 2 second exposure to 10 mM FeSO4, relative to FeSO4 controls): 8%
- % Inhibition (Plutella xylostella eggs [2]; [9]): 55%
- Number hatched (Plutella xylostella eggs [2]; [9]): 16
- Number unhatched (Plutella xylostella eggs [2]; [9]): 19
- % Inhibition (Plutella xylostella eggs [2]; [10]): 100%
- Number hatched (Plutella xylostella eggs [2]; [10]): 0
- Number unhatched (Plutella xylostella eggs [2]; [10]): 38
- effect of added Fe in FeSO4 on the chelator's inhibition of egg hatching (Plutella xylostella eggs [2]; 10 mM chelator, then FeSO4 10, 5 or 1 mM): able to reverse the effects
- inhibition of egg hatching after MeOH alone post exposure (Plutella xylostella eggs [2]; 10 mM chelator, then MeOH): significant degree of inhibition of egg hatching
- effect on egg hatching of Plutella xylostella (words) (Plutella xylostella eggs [3]; 10 and 1 mM): significantly inhibit egg hatching
- Ovicidal activity % (Plutella xylostella eggs [3]; 0.1 mM): 57.00%
- Ovicidal activity % (Plutella xylostella eggs [3]; 1 mM): 98.00%
- Activity class 0 = inactive 1 = low 2 = med 3 = high (Plutella xylostella eggs [3]; listed as of 0.1 mM): 3 (a pLD50 greater than 4 is considered strongly active (Class 3))
- Activity class 0 = inactive 1 = low 2 = med 3 = high (Plutella xylostella eggs [3]; listed as of 1 mM): 3 (a pLD50 greater than 4 is considered strongly active (Class 3))
- Number hatched (Plutella xylostella eggs [3]; [11]): 5
- Number unhatched (Plutella xylostella eggs [3]; [11]): 22
- % Inhibition (Plutella xylostella eggs [3]; [11]): 78%
- Number hatched (Plutella xylostella eggs [3]; [12]): 0
- Number unhatched (Plutella xylostella eggs [3]; [12]): 21
- % Inhibition (Plutella xylostella eggs [3]; [12]): 100%
- Number hatched (Plutella xylostella eggs [3]; [13]): 18
- Number unhatched (Plutella xylostella eggs [3]; [13]): 133
- % Inhibition (Plutella xylostella eggs [3]; [13]): 88%
- Number hatched (Plutella xylostella eggs [3]; [14]): 0
- Number unhatched (Plutella xylostella eggs [3]; [14]): 138
- % Inhibition (Plutella xylostella eggs [3]; [14]): 100%
- egg hatching in the louse (B. ovis eggs; 10 or 1 minute exposure): completely inhibited
- Number hatched in different replicates (B. ovis eggs; 1 minute exposure): Rep 1. 0; also recorded: Rep 2. 0
- % Inhibition (B. ovis eggs; 1 minute exposure): 100%
- Number unhatched (B. ovis eggs; 1 minute exposure): 10
- Number hatched in different replicates (B. ovis eggs; 10 minute exposure): Rep 2. 0; also recorded: Rep 1. 0
- % Inhibition (B. ovis eggs; 10 minute exposure): 100%
- Number unhatched (B. ovis eggs; 10 minute exposure): 10
- Ovicidal activity % ([4]; 10 mM): 100.00%
- Activity class 0 = inactive 1 = low 2 = med 3 = high ([4]; listed as of 10 mM): 3 (a pLD50 greater than 4 is considered strongly active (Class 3))
- effect on egg hatching of Helicoverpa armigera (words) [5]: significant inhibition of egg hatching
- Number hatched ([5]; Table 13): 0
- Number unhatched ([5]; Table 13): 42
- % Inhibition ([5]; Table 13, relative to the control (100% MeOH)): 100%
